Data on one compound can be found in article PMC9283466, “In silico identification of two peptides with antibacterial activity against multidrug-resistant Staphylococcus aureus” (NPJ Biofilms and Microbiomes, 2022).

Holding throughout (assay): microbe, parasite or virus in culture
In one test the test system is P. aeruginosa. The test is classed as cell-based, Pseudomonas aeruginosa. In short, it runs like this:
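Broth microdilution in cation-adjusted Mueller Hinton broth per ISO 20776-1, final inoculum 5 × 10^5 CFU/ml. Peptides in water; MIC read after 18–24 h. MBC taken as lowest concentration preventing growth on subculture onto antibiotic-free media.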

The subject of test [1] is L. monocytogenes NCTC 11994. Format: cell-based, Listeria monocytogenes. Particulars: NCTC 11994. The protocol: (§1) To determine the antimicrobial activity of the new antimicrobial peptides, HG2 and HG4, their minimum inhibitory concentrations (MICs) were determined by broth microdilution method[51] in cation adjusted Mueller Hinton broth (MHB) following the International Organisation for Standardisation (ISO) 20776-1 standard for MIC testing using a final bacterial inoculum of 5 × 10^5 CFU/ml[52]. […] The peptides dissolved in sterile distilled water were added to bacteria culture and incubated overnight at appropriate conditions. The MICs of the peptides and comparator antibiotics were recorded after 18–24 h. The minimum bactericidal concentrations (MBCs) were also determined and were taken as the lowest concentration of the antimicrobial that prevented the growth of bacterial cells after the subculture of cells (from MIC treatment) onto antibiotic-free media.

Another test has as its system List. monocytogenes. The test is classed as cell-based, Listeria monocytogenes. The protocol: as §1

≈ marks a conversion by molar mass, not a printed value. Peptide text beside a SMILES is read from it.

Turning to `CC[C@H](C)[C@H](NC(=O)[C@H](CC(C)C)NC(=O)[C@H](CC(C)C)NC(=O)[C@H](C)NC(=O)CNC(=O)CNC(=O)[C@@H](NC(=O)[C@@H](NC(=O)[C@H](CC(C)C)NC(=O)[C@H](C)NC(=O)[C@H](CC(C)C)NC(=O)CNC(=O)[C@H](CC(C)C)NC(=O)[C@@H](N)C(C)C)[C@@H](C)CC)C(C)C)C(=O)N[C@@H](CCCCN)C(=O)N[C@@H](CCCCN)C(=O)N[C@@H](CCCCN)C(=O)N[C@@H](CCC(N)=O)C(=O)N[C@@H](C)C(=O)N[C@@H](CCCCN)C(=O)N[C@@H](CO)C(N)=O` [HG4] (H-VLGLALIVGGALLIKKKQAKS-NH2; N-terminus and C-terminus assumed), the “Minimum inhibitory Concentrations MICs” value with P. aeruginosa is not below 1024 µg/mL; with List. monocytogenes it was 512 µg/mL. In test [1], this compound came in with an MIC of 512 µg/mL (≈ 242 µM).
